Results as given in US20170275275A1, “BENZENESULFONAMIDES USEFUL AS SODIUM CHANNEL INHIBITORS” (PFIZER INC., priority 2014, published 2017).
Where a name gives a salt, the structure may show the parent alone.

These compounds were tested against T1, Nav1.7 (or SCN9A) channel (Homo sapiens, UniProt Q15858) (assay: Nav1.7 (hSCN9A) channel block, PatchXpress (PX) whole-cell electrophysiology in stably transfected HEK cells). Settings: HEK293; Nav1.7, PatchXpress, 30 nM; read-out: % inhibition at 30 nM dose.
T1 construct: expressed in transfected cells
Type: cell-based
Protocol: The ability of the compounds of formula (I) to block the Nav1.7 (or SCN9A) channel was measured using the assay described below.
Human Embryonic Kidney (HEK) cells were transfected with an hSCN9A construct using lipofectamine reagent (Invitrogen), using standard techniques. Cells stably expressing the hSCN9A constructs were identified by their resistance to G-418 (400 μg/ml). Clones were screened for expression using the whole-cell voltage-clamp technique.
HEK cells stably transfected with hSCN9A were maintained in DMEM medium supplemented with 10% heat-inactivated fetal bovine serum and 400 μg/ml G-418 in an incubator at 37° C. with a humidified atmosphere of 10% CO2. For HTS, cells were harvested from flasks by trypsinization and replated in an appropriate multi-well plate (typically 96 or 384 wells/plate) such that confluence would be achieved within 24 hours of plating. Cells were typically used for electrophysiological experiments within 24 to 72 hours after plating.
For conventional whole-cell voltage clamp experiments cells were removed from the culture flask by brief trypsinization and re-plated at low density onto glass cover slips. Cover slips containing HEK cells expressing hSCN9A were placed in a bath on the stage of an inverted microscope and perfused (approximately 1 ml/minutes) with extracellular solution of the following composition: 138 mM NaCl, 2 mM CaCl2, 5.4 mM KCl, 1 mM MgCl2, 10 mM glucose, and 10 mM HEPES, pH 7.4, with NaOH. […] The osmolarity of the extracellular and intracellular solutions was 300 mOsm/kg and 295 mOsm/kg, respectively. All recordings were made at room temperature (22-24° C.) using AXOPATCH 200B amplifiers and PCLAMP software (Axon Instruments, Burlingame, Calif.). hSCN9A currents in HEK cells were measured using the whole-cell configuration of the patch-clamp technique (Hamill et al., 1981). Uncompensated series resistance was typically 2 to 5 mega ohms and >85% series resistance compensation was routinely achieved. […] Current records were acquired at 20 to 50 KHz and filtered at 5 to 10 KHz.
HEK cells stably transfected with hSCN9A were viewed under Hoffman contrast optics and placed in front of an array of flow pipes emitting either control or compound-containing extracellular solutions.
The voltage-dependence of inactivation was determined by applying a series of depolarizing prepulses (8 sec long in 10 mV increments) from a negative holding potential. The voltage was then immediately stepped to 0 mV to assess the magnitude of the sodium current. Currents elicited at 0 mV were plotted as a function of prepulse potential to allow estimation of the voltage at which 50% of the channels were inactivated (midpoint of inactivation or V1/2). Compounds were tested for their ability to inhibit hSCN9A sodium channels by activating the channel with a 20 msec voltage step […] to 0 mV following an 8 second conditioning prepulse to the empirically determined V1/2. Compound effect (% inhibition) was determined by difference in current amplitude before and after application of test compounds. For ease of comparison, “estimated IC-50” (EIC50) values were calculated from single point electrophysiology data by the following equation, (tested concentration, nM)×(100-% inhibition/% inhibition). Inhibition values <20% and >80% were excluded from the calculation.
Electrophysiological assays were conducted with PatchXpress 7000 hardware and associated software (Molecular Devices Corp). All assay buffers and solutions were identical to those used in conventional whole-cell voltage clamp experiments described above. hSCN9A cells were grown as above to 50%-80% confluency and harvested by trypsinization. Trypsinized cells were washed and resuspended in extracellular buffer at a concentration of 1×10^6 cells/ml. The onboard liquid handling facility of the PatchXpress was used for dispensing cells and application of test compounds.

T1 sequence (Q15858 whole entry): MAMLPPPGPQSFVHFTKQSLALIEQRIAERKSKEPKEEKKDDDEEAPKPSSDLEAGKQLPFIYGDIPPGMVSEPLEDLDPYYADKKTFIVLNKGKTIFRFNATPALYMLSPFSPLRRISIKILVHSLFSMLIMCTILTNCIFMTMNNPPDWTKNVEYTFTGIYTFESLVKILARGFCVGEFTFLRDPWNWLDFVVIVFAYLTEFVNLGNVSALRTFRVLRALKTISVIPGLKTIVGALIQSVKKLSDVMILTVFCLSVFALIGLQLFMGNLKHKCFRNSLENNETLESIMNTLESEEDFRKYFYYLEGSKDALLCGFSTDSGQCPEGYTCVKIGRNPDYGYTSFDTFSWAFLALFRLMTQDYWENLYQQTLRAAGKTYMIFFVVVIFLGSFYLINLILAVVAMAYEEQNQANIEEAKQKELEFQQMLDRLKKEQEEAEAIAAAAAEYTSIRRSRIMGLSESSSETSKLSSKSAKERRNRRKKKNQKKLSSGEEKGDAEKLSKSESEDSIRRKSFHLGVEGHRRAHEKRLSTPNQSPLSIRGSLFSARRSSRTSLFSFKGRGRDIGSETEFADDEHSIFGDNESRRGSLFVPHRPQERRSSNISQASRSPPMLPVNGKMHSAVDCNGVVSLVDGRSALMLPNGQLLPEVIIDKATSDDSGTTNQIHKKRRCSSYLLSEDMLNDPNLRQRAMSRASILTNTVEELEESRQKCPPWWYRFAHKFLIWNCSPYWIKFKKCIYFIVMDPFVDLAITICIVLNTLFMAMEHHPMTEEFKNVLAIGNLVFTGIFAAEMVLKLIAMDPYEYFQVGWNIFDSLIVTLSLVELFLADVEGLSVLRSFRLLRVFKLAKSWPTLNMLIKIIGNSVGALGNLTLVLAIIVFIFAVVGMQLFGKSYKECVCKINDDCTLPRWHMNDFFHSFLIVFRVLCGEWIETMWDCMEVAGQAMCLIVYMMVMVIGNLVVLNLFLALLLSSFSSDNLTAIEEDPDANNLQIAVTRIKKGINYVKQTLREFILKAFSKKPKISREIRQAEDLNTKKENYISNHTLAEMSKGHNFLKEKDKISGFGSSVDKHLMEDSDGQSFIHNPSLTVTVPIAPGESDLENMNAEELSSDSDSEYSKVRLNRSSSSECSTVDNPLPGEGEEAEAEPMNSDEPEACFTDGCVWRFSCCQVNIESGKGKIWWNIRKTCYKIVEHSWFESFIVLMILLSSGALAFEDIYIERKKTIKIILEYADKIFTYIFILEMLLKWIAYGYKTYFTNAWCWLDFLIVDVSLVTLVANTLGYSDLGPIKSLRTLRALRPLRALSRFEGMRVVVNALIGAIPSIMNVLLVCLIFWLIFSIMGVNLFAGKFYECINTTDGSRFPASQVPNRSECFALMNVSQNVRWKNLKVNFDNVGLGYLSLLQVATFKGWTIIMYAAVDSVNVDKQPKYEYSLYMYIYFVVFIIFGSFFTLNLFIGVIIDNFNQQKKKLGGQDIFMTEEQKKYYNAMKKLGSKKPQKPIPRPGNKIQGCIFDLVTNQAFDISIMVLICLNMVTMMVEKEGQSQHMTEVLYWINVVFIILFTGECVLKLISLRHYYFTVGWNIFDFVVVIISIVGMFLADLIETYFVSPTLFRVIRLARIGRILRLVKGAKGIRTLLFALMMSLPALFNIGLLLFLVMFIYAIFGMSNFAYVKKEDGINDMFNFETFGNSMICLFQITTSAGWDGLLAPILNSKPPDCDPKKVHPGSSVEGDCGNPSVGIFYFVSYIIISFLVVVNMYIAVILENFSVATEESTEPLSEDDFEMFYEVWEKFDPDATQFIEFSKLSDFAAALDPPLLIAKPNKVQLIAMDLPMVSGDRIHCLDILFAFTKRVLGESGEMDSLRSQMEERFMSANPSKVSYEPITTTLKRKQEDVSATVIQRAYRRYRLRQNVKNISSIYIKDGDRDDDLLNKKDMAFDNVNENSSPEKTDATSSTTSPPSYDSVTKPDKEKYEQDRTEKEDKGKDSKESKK

Structure (SMILES)	inhibition at 0.03 µM [%]
O=S(=O)(Nc1cscn1)c1cc(Cl)c(Oc2ccc(-c3cccc(C(F)(F)F)c3)cc2-c2ccnc(CNCCC3CCNCC3)c2)cc1F [Example 2, 5-Chloro-2-fluoro-4-{[3-(2-{[(2-piperidin-4-ylethyl)amino]methyl}pyridin-4-yl)-3′-(trifluoromethyl)biphenyl-4-yl]oxy}-N-1,3-thiazol-4-ylbenzenesulfonamide]	10.7

Same assay, conditions: estimated IC50 from single point electrophysiology data; PatchXpress platform; HEK cells expressing hSCN9A; clamped at V1/2 of inactivation; read-out: Nav1.7 EIC50

Structure (SMILES)	IC50 [nM]
CC(=O)N1CCC(CCNCc2cc(-c3cc(-c4cccc(C(F)(F)F)c4)ccc3Oc3ccc(S(=O)(=O)Nc4ncns4)cc3C#N)ccn2)CC1 [Example 1, 4-({3-[2-({[2-(1-Acetylpiperidin-4-yl)ethyl]amino}methyl)pyridin-4-yl]-3′-(trifluoromethyl)biphenyl-4-yl}oxy)-3-cyano-N-1,2,4-thiadiazol-5-ylbenzenesulfonamide]	5.8
O=S(=O)(Nc1cscn1)c1cc(Cl)c(Oc2ccc(-c3cccc(C(F)(F)F)c3)cc2-c2ccnc(CNCCC3CCNCC3)c2)cc1F [Example 2, 5-Chloro-2-fluoro-4-{[3-(2-{[(2-piperidin-4-ylethyl)amino]methyl}pyridin-4-yl)-3′-(trifluoromethyl)biphenyl-4-yl]oxy}-N-1,3-thiazol-4-ylbenzenesulfonamide]	> 30
N#Cc1cc(S(=O)(=O)Nc2ncns2)ccc1Oc1ccc(-c2ccccc2)cc1-c1cccc(C(=O)NCCN2CCNCC2)c1 [Example 3, 6′-{2-cyano-4-[(1,2,4-thiadiazol-5-ylamino)sulfonyl]phenoxy}-N-(2-piperazin-1-ylethyl)-1,1′:3′,1″-terphenyl-3-carboxamide]	1
N#Cc1cc(S(=O)(=O)Nc2ncns2)ccc1Oc1ccc(-c2ccccc2)cc1-c1cccc(CNCCC2CCNCC2)c1 [Example 5, 3-Cyano-4-[(3″-{[(2-piperidin-4-ylethyl)amino]methyl}-1,1′:3′,1″-terphenyl-4′-yl)oxy]-N-1,2,4-thiadiazol-5-ylbenzenesulfonamide sodium salt]	1.5
COCCOCCOCCOC(=O)NCc1cc(-c2cc(-c3cccc(C(F)(F)F)c3)ccc2Oc2ccc(S(=O)(=O)Nc3ncns3)cc2C#N)ccn1 [Example 8, 2-[2-(2-methoxyethoxy)ethoxy]ethyl [(4-{4-[2-cyano-4-(1,2,4-thiadiazol-5-ylsulfamoyl)phenoxy]-3′-(trifluoromethyl)biphenyl-3-yl}pyridin-2-yl)methyl]carbamate triethylammonium salt]	3.4
COCCOCCOCCOCCNC(=O)NCc1cc(-c2cc(-c3cccc(C(F)(F)F)c3)ccc2Oc2ccc(S(=O)(=O)Nc3ncns3)cc2C#N)ccn1 [Example 9, 3-cyano-4-((3-(2-(3-oxo-7,10,13,16-tetraoxa-2,4-diazaheptadecyl)pyridin-4-yl)-3′-(trifluoromethyl)-[1,1′-biphenyl]-4-yl)oxy)-N-(1,2,4-thiadiazol-5-yl)benzenesulfonamide triethylammonium salt]	10.9
COCCOCCOCCOCCNCCOCc1cc(-c2cc(-c3cccc(C(F)(F)F)c3)ccc2Oc2ccc(S(=O)(=O)Nc3ncns3)cc2C#N)ccn1 [Example 10, 4-((3-(2-(2,8,11,14,17-pentaoxa-5-azaoctadecyl)pyridin-4-yl)-3′-(trifluoromethyl)-[1,1′-biphenyl]-4-yl)oxy)-3-cyano-N-(1,2,4-thiadiazol-5-yl)benzenesulfonamide]	4.7
COCCOCCOCCOCCNC(=O)OCc1cc(-c2cc(-c3cccc(C(F)(F)F)c3)ccc2Oc2ccc(S(=O)(=O)Nc3ncns3)cc2C#N)ccn1 [Example 11, (4-(4-(4-(N-(1,2,4-thiadiazol-5-yl)sulfamoyl)-2-cyanophenoxy)-3′-(trifluoromethyl)-[1,1′-biphenyl]-3-yl)pyridin-2-yl)methyl (2,5,8,11-tetraoxatridecan-13-yl)carbamate]	10.4
COCCOCCOCCOCCOCc1cc(-c2cc(-c3cccc(C(F)(F)F)c3)ccc2Oc2ccc(S(=O)(=O)Nc3ncns3)cc2C#N)ccn1 [Example 13, 3-cyano-4-({3-[2-(2,5,8,11,14-pentaoxapentadec-1-yl)pyridin-4-yl]-3′-(trifluoromethyl)biphenyl-4-yl}oxy)-N-(1,2,4-thiadiazol-5-yl)benzenesulfonamide]	13
COCCOCCOCCOCCNC(=O)COCc1cc(-c2cc(-c3cccc(C(F)(F)F)c3)ccc2Oc2ccc(S(=O)(=O)Nc3ncns3)cc2C#N)ccn1 [Example 14, 2-((4-(4-(4-(N-(1,2,4-thiadiazol-5-yl)sulfamoyl)-2-cyanophenoxy)-3′-(trifluoromethyl)-[1,1′-biphenyl]-3-yl)pyridin-2-yl)methoxy)-N-(2,5,8,11-tetraoxatridecan-13-yl)acetamide]	5
CC(=O)N1CCC(CCNCc2cccc(-c3cc(-c4ccccc4)ccc3Oc3ccc(S(=O)(=O)Nc4ncns4)cc3C#N)c2)CC1 [Example 16, 4-{[3″-({[2-(1-Acetylpiperidin-4-yl)ethyl]amino}methyl)-1,1′:3′,1″-terphenyl-4′-yl]oxy}-3-cyano-N-1,2,4-thiadiazol-5-ylbenzenesulfonamide]	0.9
COCCOCCOCCOCCOC1CN(Cc2cc(-c3cc(-c4cccc(C(F)(F)F)c4)ccc3Oc3ccc(S(=O)(=O)Nc4ncns4)cc3C#N)ccn2)C1 [Example 20, hemi trifluoroacetate salt]	1
COCCOCCOCCOCCO[C@H]1CCN(Cc2cc(-c3cc(-c4cccc(C(F)(F)F)c4)ccc3Oc3ccc(S(=O)(=O)Nc4ncns4)cc3C#N)ccn2)C1 [Example 22, (S)-4-((3-(2-((3-((2,5,8,11-tetraoxatridecan-13-yl)oxy)pyrrolidin-1-yl)methyl)pyridin-4-yl)-3′-(trifluoromethyl)-[1,1′-biphenyl]-4-yl)oxy)-3-cyano-N-(1,2,4-thiadiazol-5-yl)benzenesulfonamide hemi-trifluoroacetate salt]	2.6
COCCOCCOCCOCCOC1CCN(Cc2cc(-c3cc(-c4cccc(C(F)(F)F)c4)ccc3Oc3ccc(S(=O)(=O)Nc4ncns4)cc3C#N)ccn2)CC1 [Example 23, 4-((3-(2-((4-((2,5,8,11-tetraoxatridecan-13-yl)oxy)piperidin-1-yl)methyl)pyridin-4-yl)-3′-(trifluoromethyl)-[1,1′-biphenyl]-4-yl)oxy)-3-cyano-N-(1,2,4-thiadiazol-5-yl)benzenesulfonamide trifluoroacetate salt]	5
COCCOCCOCCOCCOCCOCCOCCOCCOCCOCCOCCOCCC(=O)N1CCN(c2cc(-c3cc(-c4ccc(C(F)(F)F)cc4)ccc3Oc3ccc(S(=O)(=O)Nc4ncns4)cc3C#N)ccn2)CC1 [Example 24, 4-((3-(2-(4-(2,5,8,11,14,17,20,23,26,29,32,35-dodecaoxaoctatriacontan-38-oyl)piperazin-1-yl)pyridin-4-yl)-4′-(trifluoromethyl)-[1,1′-biphenyl]-4-yl)oxy)-3-cyano-N-(1,2,4-thiadiazol-5-yl)benzenesulfonamide]	13.4
COCCOCCOCCOCCOCCOCCOCCOCCOCCOCCOCCOCCC(=O)NCc1cc(-c2cc(-c3cccc(C(F)(F)F)c3)ccc2Oc2cc(F)c(S(=O)(=O)Nc3nncs3)cc2Cl)ccn1 [Example 27, N-[(4-{4-[2-chloro-5-fluoro-4-(1,3,4-thiadiazol-2-ylsulfamoyl)phenoxy]-3′-(trifluoromethyl)biphenyl-3-yl}pyridin-2-yl)methyl]-2,5,8,11,14,17,20,23,26,29,32,35-dodecaoxaoctatriacontan-38-amide]	47.2
COCCOCCOCCOCCOCCOCCOCCOCCOCCOCCOCCOCCC(=O)NCc1cc(-c2cc(-c3cccc(C(F)(F)F)c3)ccc2Oc2cc(F)c(S(=O)(=O)Nc3cscn3)cc2Cl)ccn1 [Example 28, N-[(4-{4-[2-chloro-5-fluoro-4-(1,3-thiazol-4-ylsulfamoyl)phenoxy]-3′-(trifluoromethyl)biphenyl-3-yl}pyridin-2-yl)methyl]-2,5,8,11,14,17,20,23,26,29,32,35-dodecaoxaoctatriacontan-38-amide]	241
